Test results from patent US20250324971A1, “HERBICIDAL DERIVATIVES” (SYNGENTA CROP PROTECTION AG, priority 2022, published 2025).

Columns and labels:
Type in all cases: in vivo
[1] = system: Amaranthus retoflexus (AMARE); assay: Pre-Emergence Test (herbicidal, glasshouse pots); details: evaluated after 13 days, five-point scale
Zea mays (ZEAMX) [2] = assay: Pre-Emergence Test (herbicidal, glasshouse pots); details: evaluated after 13 days, five-point scale
[3] = system: Ipomoea hederacea (IPOHE); assay: Pre-Emergence Test (herbicidal, glasshouse pots); details: evaluated after 13 days, five-point scale
[4] = system: Amaranthus palmeri (AMAPA); assay: Post-Emergence Test (herbicidal, glasshouse pots); details: evaluated after 13 days
Procedure: (§1) Seeds of a variety of test species are sown in standard soil in pots (Setaria faberi (SETFA), Ipomoea hederacea (IPOHE), Echinochloa crus-galli (ECHCG), (Amaranthus retoflexus (AMARE), Zea mays (ZEAMX), and Amaranthus palmeri (AMAPA)). After 8 days cultivation under controlled conditions in a glasshouse (at 24° C./16° C., day/night; 14 hours light; 65% humidity), the plants arm sprayed with an aqueous spray solution derived from the formulation of the technical active ingredient in acetone/water (50:50) solution containing 0.5% Tween 20 (polyoxyethylene sorbitan monolaurate, CAS RN 9005-84-5). Rate of application is shown in g/ha in the tables below. The test plants are then grown in a glasshouse under controlled conditions in a glasshouse (at 24° C./16° C., day/night; 14 hours light; 65% humidity) and watered twice daily. After 13 days the test is evaluated for the percentage damage caused to the plant. The biological activities are shown in the following table on a five-point scale (5=81-100%; 4=61-80%; 3=41-60%; 2=21-40%; 1=0-20%; -=not tested).

Setaria faberi (SETFA) [5] = assay: Post-Emergence Test (herbicidal, glasshouse pots); details: evaluated after 13 days
Procedure: as §1

Zea mays (ZEAMX) [6] = assay: Post-Emergence Test (herbicidal, glasshouse pots); details: evaluated after 13 days
Procedure: as §1

[7] = system: Echinochloa crus-galli (ECHCG); assay: Post-Emergence Test (herbicidal, glasshouse pots); details: evaluated after 13 days
Procedure: as §1

[8] = system: Amaranthus retoflexus (AMARE); assay: Post-Emergence Test (herbicidal, glasshouse pots); details: evaluated after 13 days
Procedure: as §1

[9] = system: Ipomoea hederacea (IPOHE); assay: Post-Emergence Test (herbicidal, glasshouse pots); details: evaluated after 13 days
Procedure: as §1

[10] = system: Amaranthus palmeri (AMAPA); assay: Pre-Emergence Test (herbicidal, glasshouse pots); details: evaluated after 13 days, five-point scale
Setaria faberi (SETFA) [11] = assay: Pre-Emergence Test (herbicidal, glasshouse pots); details: evaluated after 13 days, five-point scale
[12] = system: Echinochloa crus-galli (ECHCG); assay: Pre-Emergence Test (herbicidal, glasshouse pots); details: evaluated after 13 days, five-point scale

Row | Structure (SMILES) | percentage damage caused to the plant, AMARE ([1]; rate 250 g/ha) | percentage damage caused to the plant, ZEAMX (Zea mays (ZEAMX) [2]; rate 250 g/ha) | percentage damage caused to the plant, IPHOE ([3]; rate 250 g/ha) | Post-Emergence Test AMAPA percentage damage (five-point scale) ([4]; rate 250 g/ha) | Post-Emergence Test SETFA percentage damage (five-point scale) (Setaria faberi (SETFA) [5]; rate 250 g/ha) | Post-Emergence Test ZEAMX percentage damage (five-point scale) (Zea mays (ZEAMX) [6]; rate 250 g/ha) | Post-Emergence Test ECHCG percentage damage (five-point scale) ([7]; rate 250 g/ha) | Post-Emergence Test AMARE percentage damage (five-point scale) ([8]; rate 250 g/ha) | Post-Emergence Test IPHOE percentage damage (five-point scale) ([9]; rate 250 g/ha) | percentage damage caused to the plant, AMAPA ([10]; rate 250 g/ha) | percentage damage caused to the plant, SETFA (Setaria faberi (SETFA) [11]; rate 250 g/ha) | percentage damage caused to the plant, ECHCG ([12]; rate 250 g/ha) | further results
1 | CCn1c(Oc2ccc(Cl)cn2)cc(=O)c(C(=O)O)c1-c1ccc(Cl)c(Cl)c1 [Compound 38, 6-[(5-chloro-2-pyridyl)oxy]-2-(3,4-dichlorophenyl)-1-ethyl-4-oxo-pyridine-3-carboxylic acid] | 3 (3=41-60%) | 4 (4=61-80%) | 4 (4=61-80%) | 4 (4=61-80%) | 4 (4=61-80%) | 4 (4=61-80%) | 3 (3=41-60%) | 4 (4=61-80%) | 4 (4=61-80%) | 2 (2=21-40%) | 5 (5=81-100%) | 5 (5=81-100%) | 
2 | C#CC(C)Oc1cc(=O)c(C(=O)O)c(-c2ccc(Cl)c(Cl)c2)n1CC (stereo not drawn) [Compound 49, 2-(3,4-dichlorophenyl)-1-ethyl-6-(1-methylprop-2-ynoxy)-4-oxo-pyridine-3-carboxylic acid] | 1 (1=0-20%) | 0 | 1 (1=0-20%) | 4 (4=61-80%) | 0 | 1 (1=0-20%) | 0 | 1 (1=0-20%) | 1 (1=0-20%) | 0 | 1 (1=0-20%) | 1 (1=0-20%) | 
3 | CCn1c(Oc2ccc(OC)c(OC)c2)cc(=O)c(C(=O)O)c1-c1ccc(Cl)c(Cl)c1 [Compound 21, 2-(3,4-dichlorophenyl)-6-(3,4-dimethoxyphenoxy)-1-ethyl-4-oxo-pyridine-3-carboxylic acid] |  |  |  |  |  |  |  |  |  |  |  |  | percentage damage caused to the plant, AMARE ([1]; rate 1000 g/ha): 1 (1=0-20%); percentage damage caused to the plant, ZEAMX (Zea mays (ZEAMX) [2]; rate 1000 g/ha): 1 (1=0-20%); percentage damage caused to the plant, IPHOE ([3]; rate 1000 g/ha): 3 (3=41-60%); Post-Emergence Test AMAPA percentage damage (five-point scale) ([4]; rate 1000 g/ha): 3 (3=41-60%); Post-Emergence Test SETFA percentage damage (five-point scale) (Setaria faberi (SETFA) [5]; rate 1000 g/ha): 5 (5=81-100%); Post-Emergence Test ZEAMX percentage damage (five-point scale) (Zea mays (ZEAMX) [6]; rate 1000 g/ha): 1 (1=0-20%); Post-Emergence Test ECHCG percentage damage (five-point scale) ([7]; rate 1000 g/ha): 1 (1=0-20%); Post-Emergence Test AMARE percentage damage (five-point scale) ([8]; rate 1000 g/ha): 4 (4=61-80%); Post-Emergence Test IPHOE percentage damage (five-point scale) ([9]; rate 1000 g/ha): 3 (3=41-60%); percentage damage caused to the plant, AMAPA ([10]; rate 1000 g/ha): 1 (1=0-20%); percentage damage caused to the plant, SETFA (Setaria faberi (SETFA) [11]; rate 1000 g/ha): 4 (4=61-80%); percentage damage caused to the plant, ECHCG ([12]; rate 1000 g/ha): 2 (2=21-40%)
4 | CCn1c(Oc2ccc(OC(F)(F)F)cc2)cc(=O)c(C(=O)O)c1-c1ccc(Cl)c(Cl)c1 [Compound 20, 2-(3,4-dichlorophenyl)-1-ethyl-4-oxo-6-[4-(trifluoromethoxy)phenoxy]pyridine-3-carboxylic acid] |  |  |  |  |  |  |  |  |  |  |  |  | percentage damage caused to the plant, AMARE ([1]; rate 1000 g/ha): 4 (4=61-80%); percentage damage caused to the plant, ZEAMX (Zea mays (ZEAMX) [2]; rate 1000 g/ha): 3 (3=41-60%); percentage damage caused to the plant, IPHOE ([3]; rate 1000 g/ha): 2 (2=21-40%); Post-Emergence Test AMAPA percentage damage (five-point scale) ([4]; rate 1000 g/ha): 3 (3=41-60%); Post-Emergence Test SETFA percentage damage (five-point scale) (Setaria faberi (SETFA) [5]; rate 1000 g/ha): 5 (5=81-100%); Post-Emergence Test ZEAMX percentage damage (five-point scale) (Zea mays (ZEAMX) [6]; rate 1000 g/ha): 3 (3=41-60%); Post-Emergence Test ECHCG percentage damage (five-point scale) ([7]; rate 1000 g/ha): 4 (4=61-80%); Post-Emergence Test AMARE percentage damage (five-point scale) ([8]; rate 1000 g/ha): 4 (4=61-80%); Post-Emergence Test IPHOE percentage damage (five-point scale) ([9]; rate 1000 g/ha): 3 (3=41-60%); percentage damage caused to the plant, AMAPA ([10]; rate 1000 g/ha): 4 (4=61-80%); percentage damage caused to the plant, SETFA (Setaria faberi (SETFA) [11]; rate 1000 g/ha): 5 (5=81-100%); percentage damage caused to the plant, ECHCG ([12]; rate 1000 g/ha): 5 (5=81-100%)
5 | CCn1c(Oc2ccc(F)nc2)cc(=O)c(C(=O)O)c1-c1ccc(Cl)c(Cl)c1 [Compound 52, 2-(3,4-dichlorophenyl)-1-ethyl-6-[(6-fluoro-3-pyridyl)oxy]-4-oxo-pyridine-3-carboxylic acid] | 3 (3=41-60%) | 5 (5=81-100%) | 3 (3=41-60%) | 1 (1=0-20%) | 4 (4=61-80%) | 4 (4=61-80%) | 4 (4=61-80%) | 4 (4=61-80%) | 4 (4=61-80%) | 2 (2=21-40%) | 5 (5=81-100%) | 4 (4=61-80%) | 
6 | CCn1c(Oc2ccc(C)cc2)cc(=O)c(C(=O)O)c1-c1ccc(Cl)c(Cl)c1 [Compound 53, 2-(3,4-dichlorophenyl)-1-ethyl-6-(4-methylphenoxy)-4-oxo-pyridine-3-carboxylic acid] | 2 (2=21-40%) | 0 | 1 (1=0-20%) | 4 (4=61-80%) | 1 (1=0-20%) | 1 (1=0-20%) | 0 | 3 (3=41-60%) | 4 (4=61-80%) | 0 | 1 (1=0-20%) | 0 | 
7 | CCn1c(Oc2ccnc(Cl)c2)cc(=O)c(C(=O)O)c1-c1ccc(Cl)c(Cl)c1 [Compound 54, 6-[(2-chloro-4-pyridyl)oxy]-2-(3,4-dichlorophenyl)-1-ethyl-4-oxo-pyridine-3-carboxylic acid] | 3 (3=41-60%) | 1 (1=0-20%) | 4 (4=61-80%) | 3 (3=41-60%) | 3 (3=41-60%) | 4 (4=61-80%) | 3 (3=41-60%) | 4 (4=61-80%) | 4 (4=61-80%) | 1 (1=0-20%) | 5 (5=81-100%) | 4 (4=61-80%) | 
8 | CCn1c(Oc2ccc(F)c(F)c2)cc(=O)c(C(=O)O)c1-c1ccc(C#N)c(Cl)c1 [Compound 76] | 2 (2=21-40%) | 5 (5=81-100%) | 1 (1=0-20%) | 3 (3=41-60%) | 4 (4=61-80%) | 4 (4=61-80%) | 3 (3=41-60%) | 4 (4=61-80%) | 4 (4=61-80%) | 2 (2=21-40%) | 5 (5=81-100%) | 4 (4=61-80%) | 
9 | CCc1cc(Oc2cc(=O)c(C(=O)O)c(-c3ccc(Cl)c(Cl)c3)n2CC)no1 [Compound 39, 2-(3,4-dichlorophenyl)-1-ethyl-6-(5-ethylisoxazol-3-yl)oxy-4-oxo-pyridine-3-carboxylic acid] | 1 (1=0-20%) | 0 | 1 (1=0-20%) | 1 (1=0-20%) | 1 (1=0-20%) | 0 | 1 (1=0-20%) | 1 (1=0-20%) | 2 (2=21-40%) | 1 (1=0-20%) | 1 (1=0-20%) | 1 (1=0-20%) | 
